Test system: OVTOKO cells
Assay: Cell growth inhibitory effect on human ovarian cancer cell line (cell counting kit 8, 6 days)
Type: cell-based
Conditions: 144 h, 6 days incubation
Text: NCI-H226 cells, a human mesothelioma cell line (ATCC, CRL-5826), NCI-H322 cells, a human lung cancer cell line (the European Collection of Authenticated Cell Cultures, 95111734), OUTOKO cells, a human ovarian cancer cell line (JCRB cell bank, KRB1048) and […] were each subcultured by keeping the cell density under 80% in a RPMI1640 culture medium with 10% fetal bovine serum (FBS). NCI-H226 cells, NCI-H322 cells and SSP-25 cells were each suspended in the RPMI1640 culture medium mentioned above, and plated to a 96-well flat-bottom plate at 500 cells/well in each well, and incubated at 37° C. in an incubator with 5% CO2 for one day. After the incubation, the evaluation of cell growth inhibitory activity was started. OVTOKO cells were suspended in the RPMI1640 culture medium mentioned above, and plated to a 96-well flat-bottom plate at 250 cells/well in each well, and incubated it at 37° C. in an incubator with 5% CO2 for one day. After the incubation, the evaluation of the cell growth inhibitory activity was started. The next day, a test compound was serially diluted to 5 times of its final concentration in the RPM11640 culture medium mentioned above, and the diluted solution was added to each well. In this case, the final concentration of DMSO in each well was adjusted to 0.1%. After the test compound was added, cells were incubated at 37° C. in an incubator with 5% CO2 for 6 days. At the addition of the test compound and 6 days after the addition, the cell counting measurement was performed using a cell counting kit 8 (made by DOJINDO) according to a protocol equivalent to DOJINDO's recommendation. A reagent contained in the kit was added to each plate and color reaction was performed for 2 or 3 hours at 37° C. in an incubator with 5% CO2. After the reaction, an absorbance at wavelength of 450 nm was measured using a microplate reader. A growth inhibition rate was calculated according to the following formula, from which the concentration of a test compound at which cell growth was inhibited by 50% (GI50 value) was determined.

Row | GI50 [nM] | SMILES
1 | ≤ 3000 | C=CC(=O)NC1COc2c(Oc3ccc(C(F)(F)F)cc3)cccc2C1=O (racemic) [Compound 40, N-[4-Oxo-8-{4-(trifluoromethyl)phenoxy}chroman-3-yl]acrylamide]
2 | ≤ 3000 | C=CC(=O)N[C@@H]1c2ccc(Oc3ccc(C(F)(F)F)cc3)cc2OC[C@@H]1F (relative stereo) [Compound 21, cis-N-[3-Fluoro-7-{4-(trifluoromethyl)phenoxy}chroman-4-yl]acrylamide]
3 | ≤ 3000 | C=CC(=O)N[C@@H]1c2ccc(Oc3ccc(C(F)(F)F)cc3)cc2OC[C@H]1F (relative stereo) [Compound 22, trans-N-[3-Fluoro-7-{4-(trifluoromethyl)phenoxy}chroman-4-yl]acrylamide]
4 | ≤ 3000 | C=CC(=O)N[C@@H]1CC[C@H](Oc2ccc(C(F)(F)F)cc2)c2ncc(Cl)cc21 (relative stereo) [Compound 190, N-((5R*,8S*)-3-Chloro-8-(4-(trifluoromethyl)phenoxy)-5,6,7,8-tetrahydroquinolin-5-yl)acrylamide]
5 | ≤ 3000 | C=CC(=O)N[C@H]1CC[C@@H](Oc2ccc(C(F)(F)F)cc2)c2nc(Cl)ccc21 (relative stereo) [Compound 241, cis-N-[2-Chloro-8-{4-(trifluoromethyl)phenoxy}-5,6,7,8-tetrahydroquinolin-5-yl]acrylamide]
6 | ≤ 3000 | C=CC(=O)NC1CCOc2cc(Oc3ccc(C(F)(F)F)cc3)ccc21 (centres unmarked) [Compound 5, N-[7-{4-(trifluoromethyl)phenoxy}chroman-4-yl]acrylamide]
7 | ≤ 3000 | [H]/C=C/C(=O)NC1CCOc2c1ccc(Oc1ccc(Cl)cc1)c2C (centres unmarked) [Compound 27, N-{7-(4-Chlorophenoxy)-8-methylchroman-4-yl}acrylamide]
8 | ≤ 3000 | [H]/C=C/C(=O)NC1CCOc2c1ccc(Oc1ccc(C(F)(F)F)cc1)c2C (centres unmarked) [Compound 28, N-[8-Methyl-7-{4-(trifluoromethyl)phenoxy}chroman-4-yl]acrylamide]
9 | ≤ 3000 | [H]/C=C/C(=O)NC1CCOc2c1ccc(Oc1ccc(Cl)cc1)c2OC (centres unmarked) [Compound 32, N-{7-(4-Chlorophenoxy)-8-methoxychroman-4-yl}acrylamide]
10 | ≤ 3000 | C=CC(=O)NC1COc2cccc(Oc3ccc(C(F)(F)F)cc3)c2C1 (centres unmarked) [Compound 35, N-[5-{4-(Trifluoromethyl)phenoxy}chroman-3-yl]acrylamide]
11 | ≤ 3000 | C=CC(=O)NC1COc2cc(Oc3ccc(Cl)cc3)ccc2C1 (centres unmarked) [Compound 37, N-{7-(4-Chlorophenoxy)chroman-3-yl}acrylamide]
12 | ≤ 3000 | C=CC(=O)NC1COc2c(Oc3ccc(Cl)cc3)ccc(C)c2C1 (centres unmarked) [Compound 41, N-{8-(4-Chlorophenoxy)-5-methylchroman-3-yl}acrylamide]
13 | ≤ 3000 | C=CC(=O)NC1COc2c(cccc2Oc2ccc(Cl)cc2)C1 (centres unmarked) [Compound 59, N-{8-(4-chlorophenoxy)chroman-3-yl}acrylamide]
14 | ≤ 3000 | C=CC(=O)NC1COc2c(cccc2Oc2ccc(C(F)(F)F)cc2)C1 (centres unmarked) [Compound 61, N-[8-{4-(Trifluoromethyl)phenoxy}chroman-3-yl]acrylamide]
15 | ≤ 3000 | C=CC(=O)Nc1cncc(Oc2cccc(C(F)(F)F)c2)c1 [Compound 95, N-[5-{3-(Trifluoromethyl)phenoxy}pyridin-3-yl)acrylamide]
16 | ≤ 3000 | C=CC(=O)Nc1cncc(Oc2ccc(C(F)(F)F)cc2)c1 [Compound 96, N-[5-{4-(Trifluoromethyl)phenoxy}pyridin-3-yl]acrylamide]
17 | ≤ 3000 | C=CC(=O)Nc1cncc(Oc2ccc(OC(F)(F)F)cc2)c1 [Compound 100, N-[5-{4-(Trifluoromethoxy)phenoxy}pyridin-3-yl]acrylamide]

Row | GI50 [nM] | SMILES
18 | ≤ 3000 | C=CC(=O)Nc1cncc(Oc2ccc(Cl)c(Cl)c2)c1 [Compound 105, N-{5-(3,4-Dichlorophenoxy)pyridin-3-yl}acrylamide]
19 | ≤ 3000 | C=CC(=O)Nc1cncc(Oc2ccc(C(F)(F)F)c(F)c2)c1 [Compound 106, N-[5-{3-Fluoro-4-(trifluoromethyl)phenoxy}pyridin-3-yl]acrylamide]
20 | ≤ 3000 | C=CC(=O)Nc1cncc(Oc2cncc(C(F)(F)F)c2)c1 [Compound 107, N-(5-[{5-(Trifluoromethyl)pyridin-3-yl}oxy]pyridin-3-yl)acrylamide]
21 | ≤ 3000 | C=CC(=O)Nc1cncc(Oc2ccnc(C(F)(F)F)c2)c1 [Compound 108, N-(5-[{2-(Trifluoromethy)pyridin-4-yl}oxy]pyridin-3-yl)acrylamide]
22 | ≤ 3000 | C=CC(=O)Nc1cncc(Oc2ccc(C(F)(F)F)cn2)c1 [Compound 109, N-(5-[{5-(Trifluoromethyl)pyridin-2-yl}oxy]pyridin-3-yl)acrylamide]
23 | ≤ 3000 | C=CC(=O)Nc1ccc(Oc2ccccc2)c2ncccc12 [Compound 111, N-(8-Phenoxyquinolin-5-yl)acrylamide]
24 | ≤ 3000 | C=CC(=O)Nc1ccc(Oc2ccccc2)c2nc(C)ccc12 [Compound 112, N-(2-Methyl-8-phenoxyquinolin-5-yl)acrylamide]
25 | ≤ 3000 | C=CC(=O)Nc1ccc(Oc2cccc(Cl)c2)c2ncccc12 [Compound 114, N-{8-(3-Chlorophenoxy)quinolin-5-yl}acrylamide]
26 | ≤ 3000 | C=CC(=O)Nc1ccc(Oc2ccc(Cl)cc2)c2nc(C)ccc12 [Compound 117, N-{8-(4-Chlorophenoxy)-2-methylquinolin-5-yl}acrylamide]
27 | ≤ 3000 | C=CC(=O)Nc1ccc(OCC2CCC(F)(F)CC2)c2ncccc12 [Compound 126, N-[8-{(4,4-Difluorocyclohexyl)methoxy}quinolin-5-yl]acrylamide]
28 | ≤ 3000 | [H]/C=C/C(=O)NCc1ccc(Oc2ccc(Cl)cc2)c2ncccc12 [Compound 134, N-[{8-(4-Chlorophenoxy)quinolin-5-yl}methyl]acrylamide]
29 | ≤ 3000 | [H]/C=C/C(=O)NCc1ccc(Oc2cccc(C(F)(F)F)c2)c2ncccc12 [Compound 137, N-([8-{3-(Trifluoromethyl)phenoxy}quinolin-5-yl]methyl)acrylamide]
30 | ≤ 3000 | [H]/C=C/C(=O)NCc1ccc(Oc2ccc(C(F)(F)F)cc2)c2ncccc12 [Compound 138, N-([8-{4-(Trifluoromethyl)phenoxy}quinolin-5-yl]methyl)acrylamide]
31 | ≤ 3000 | [H]/C=C/C(=O)NCc1ccc(Oc2ccc(C(F)(F)F)nc2)c2ncccc12 [Compound 143, N-{(8-[{6-(Trifluoromethyl)pyridin-3-yl}oxy]quinolin-5-yl)methyl}acrylamide]
32 | ≤ 3000 | [H]/C=C/C(=O)NCc1cc(Oc2ccc(C(F)(F)F)nc2)nc2ccccc12 [Compound 149, N-{(2-[{6-(Trifluoromethyl)pyridin-3-yl}oxy]quinolin-4-yl)methyl}acrylamide]
33 | ≤ 3000 | [H]/C=C/C(=O)NCc1cc(Oc2ccnc(Cl)c2)nc2ccccc12 [Compound 150, N-([2-{(2-Chloropyridin-4-yl)oxy}quinolin-4-yl]methyl)acrylamide]
34 | ≤ 3000 | [H]/C=C/C(=O)NCc1cc(Oc2ccnc(C(F)(F)F)c2)nc2ccccc12 [Compound 151, N-{(2-[{2-(Trifluoromethyl)pyridin-4-yl}oxy]quinolin-4-yl)methyl}acrylamide]

Row | SMILES | GI50 [nM]
35 | C=CC(=O)NC1COc2c(cccc2Oc2cnc(C(F)(F)F)nc2)C1 (centres unmarked) [Compound 155, N-(8-[{2-(Trifluoromethyl)pyrimidin-5-yl}oxy]chroman-3-yl)acrylamide] | ≤ 3000
